Measurements: the NIST ThermoML archive (doi:10.1021/je900525f)
± gives the expanded uncertainty stated by the source.

Experiments:
[1] = 101 kPa, Liquid; for viscosity: Capillary tube (Ostwald / Ubbelohde) method; for speed of sound: Pulse-echo method
[2] = xn = mol fraction of the nth substance listed; conditions: 101 kPa, Liquid; for viscosity: Capillary tube (Ostwald / Ubbelohde) method; for speed of sound: Pulse-echo method

N#CCc1ccccc1 [benzeneacetonitrile]
[1]
Conditions	mass density [kg/m3]	speed of sound [m/s]	viscosity [mPa·s]
303.15 K	1008.8 ± 0.7	1519.2 ± 9.2	1.761 ± 0.016
308.15 K	1004.1 ± 0.7	1512.9 ± 9.2	1.602 ± 0.015
313.15 K	999.5 ± 0.8	1503.4 ± 9.1	1.489 ± 0.015

N#CCc1ccccc1 [benzeneacetonitrile] + CCOC(=O)CC#N
[2], x1 = 1
Conditions	mass density [kg/m3]	speed of sound [m/s]	viscosity [mPa·s]
303.15 K	1008.8 ± 0.7	1519.2 ± 9.2	1.761 ± 0.016
308.15 K	1004.1 ± 0.7	1512.9 ± 9.2	1.602 ± 0.015
313.15 K	999.5 ± 0.8	1503.4 ± 9.1	1.489 ± 0.015

N#CCc1ccccc1 [benzeneacetonitrile] + CCOC(=O)CCl
[2], x1 = 1
Conditions	mass density [kg/m3]	speed of sound [m/s]	viscosity [mPa·s]
303.15 K	1008.8 ± 0.7	1519.2 ± 9.2	1.761 ± 0.016
308.15 K	1004.1 ± 0.7	1512.9 ± 9.2	1.602 ± 0.015
313.15 K	999.5 ± 0.8	1503.4 ± 9.1	1.489 ± 0.015

CCOC(C)=O [ethyl acetate]
[1]
Conditions	mass density [kg/m3]	speed of sound [m/s]	viscosity [mPa·s]
303.15 K	888.9 ± 0.5	1118.5 ± 6.8	0.379 ± 0.01
308.15 K	882.6 ± 0.5	1097.8 ± 6.6	0.361 ± 0.01
313.15 K	875.9 ± 0.5	1081.2 ± 6.5	0.344 ± 0.01

CCOC(C)=O [ethyl acetate] + N#CCc1ccccc1
[2], x2 = 0
Conditions	mass density [kg/m3]	speed of sound [m/s]	viscosity [mPa·s]
303.15 K	888.9 ± 0.5	1118.5 ± 6.8	0.379 ± 0.01
308.15 K	882.6 ± 0.5	1097.8 ± 6.6	0.361 ± 0.01
313.15 K	875.9 ± 0.5	1081.2 ± 6.5	0.344 ± 0.01

CCOC(=O)CCl [ethyl chloroethanoate]
[1]
Conditions	mass density [kg/m3]	speed of sound [m/s]	viscosity [mPa·s]
303.15 K	1139.3 ± 0.9	1229.4 ± 7.5	0.9692 ± 0.012
308.15 K	1132.5 ± 0.9	1212.4 ± 7.4	0.8979 ± 0.012
313.15 K	1125.9 ± 0.9	1197.6 ± 7.3	0.8341 ± 0.012

CCOC(=O)CC#N [ethyl cyanoacetate]
[1]
Conditions	mass density [kg/m3]	speed of sound [m/s]	viscosity [mPa·s]
303.15 K	1051.4 ± 1.4	1396.9 ± 8.6	2.186 ± 0.027
308.15 K	1046.5 ± 1.4	1384.8 ± 8.6	1.962 ± 0.024
313.15 K	1040.8 ± 1.5	1367.7 ± 8.5	1.77 ± 0.022
